In ChEMBL document CHEMBL1157741, “Synthesis and antituberculosis activity of novel mefloquine-isoxazole carboxylic esters as prodrugs” (Bioorg Med Chem Lett, 2010):

Tested on: Mycobacterium tuberculosis
Experiment: Antimicrobial activity against Mycobacterium bovis BCG
Type: functional
Settings: variant bovis BCG

SMILES | MIC [µM]
O=C(O)c1cc(COc2cc(C(F)(F)F)nc3c(C(F)(F)F)cccc23)on1 | > 128
CCOC(=O)c1cc(COc2cc(C(F)(F)F)nc3c(C(F)(F)F)cccc23)on1 | < 0.5
